The source of these data is patent US9045491B2, “Thienyl [3,2-D] pyrimidin-4-one compounds, preparation method, pharmaceutical compositions and use thereof” (SHANGHAI INSTITUTE OF MATERIA MEDICA, CHINESE ACADEMY OF …, priority 2011, dated 2015).

Common to all, as to type: biochemical
One assay concerns the target T1, FAP (Homo sapiens, UniProt Q12884).
T1 sequence (Q12884 1-760): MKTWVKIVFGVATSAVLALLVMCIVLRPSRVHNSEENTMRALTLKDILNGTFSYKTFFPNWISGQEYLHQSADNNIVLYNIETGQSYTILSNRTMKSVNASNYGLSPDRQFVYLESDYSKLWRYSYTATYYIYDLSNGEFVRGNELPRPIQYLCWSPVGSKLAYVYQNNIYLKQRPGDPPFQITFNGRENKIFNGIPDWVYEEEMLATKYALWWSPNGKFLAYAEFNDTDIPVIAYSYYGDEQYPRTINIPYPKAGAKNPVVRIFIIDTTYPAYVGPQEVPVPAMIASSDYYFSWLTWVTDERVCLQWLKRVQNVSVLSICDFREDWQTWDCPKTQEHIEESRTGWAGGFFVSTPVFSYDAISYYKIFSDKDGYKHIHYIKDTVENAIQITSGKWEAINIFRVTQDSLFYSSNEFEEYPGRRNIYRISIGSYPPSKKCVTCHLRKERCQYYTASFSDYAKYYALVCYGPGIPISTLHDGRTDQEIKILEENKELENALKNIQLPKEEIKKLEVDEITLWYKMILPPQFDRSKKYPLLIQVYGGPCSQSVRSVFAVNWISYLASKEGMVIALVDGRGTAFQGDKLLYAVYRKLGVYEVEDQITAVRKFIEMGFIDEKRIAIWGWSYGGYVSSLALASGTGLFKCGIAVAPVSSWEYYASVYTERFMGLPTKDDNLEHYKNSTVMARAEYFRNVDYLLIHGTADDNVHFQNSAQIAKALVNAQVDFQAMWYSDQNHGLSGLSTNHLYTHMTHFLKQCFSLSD
Kind of assay: FAP inhibition (Table 1). The conditions noted are these: N.I. = No Inhibition.

The target in assay [1] is dipeptidyl peptidase 7 (DPP 7) (Homo sapiens, UniProt Q9UHL4). Kind of assay: DPP 7 activity screening. The note with it: N.I. = No Inhibition. The method, then: (§1) Screening method: dipeptidyl peptidase IV (DPP IV) activity screening, dipeptidyl peptidase 7 (DPP 7), dipeptidyl peptidase 8 (DPP 8) activity screening, and dipeptidyl peptidase 9 (DPP 9) activity screening.
(§2) Sample treatment: the sample was dissolved in DMSO and stored in low temperature. The concentration of DMSO in the final system was controlled so that the detected activity was not affected.
(§3) The activity of sample was tested under the selected single concentration from preliminary screening, for example, 20 μg/mL. […] The software for calculation was Graphpad Prism 4 and the model used for fitting was sigmoidal dose-response (variable slope). For most inhibitor screening models, the bottom and top of the fitting curve were set to 0 and 100.

The target in another assay is T2, human DPP 8 (Homo sapiens, UniProt Q6V1X1).
T2 construct: made in house; host or cells: insect cells, baculovirus Bac-to-Bac
T2 sequence (Q6V1X1 whole entry): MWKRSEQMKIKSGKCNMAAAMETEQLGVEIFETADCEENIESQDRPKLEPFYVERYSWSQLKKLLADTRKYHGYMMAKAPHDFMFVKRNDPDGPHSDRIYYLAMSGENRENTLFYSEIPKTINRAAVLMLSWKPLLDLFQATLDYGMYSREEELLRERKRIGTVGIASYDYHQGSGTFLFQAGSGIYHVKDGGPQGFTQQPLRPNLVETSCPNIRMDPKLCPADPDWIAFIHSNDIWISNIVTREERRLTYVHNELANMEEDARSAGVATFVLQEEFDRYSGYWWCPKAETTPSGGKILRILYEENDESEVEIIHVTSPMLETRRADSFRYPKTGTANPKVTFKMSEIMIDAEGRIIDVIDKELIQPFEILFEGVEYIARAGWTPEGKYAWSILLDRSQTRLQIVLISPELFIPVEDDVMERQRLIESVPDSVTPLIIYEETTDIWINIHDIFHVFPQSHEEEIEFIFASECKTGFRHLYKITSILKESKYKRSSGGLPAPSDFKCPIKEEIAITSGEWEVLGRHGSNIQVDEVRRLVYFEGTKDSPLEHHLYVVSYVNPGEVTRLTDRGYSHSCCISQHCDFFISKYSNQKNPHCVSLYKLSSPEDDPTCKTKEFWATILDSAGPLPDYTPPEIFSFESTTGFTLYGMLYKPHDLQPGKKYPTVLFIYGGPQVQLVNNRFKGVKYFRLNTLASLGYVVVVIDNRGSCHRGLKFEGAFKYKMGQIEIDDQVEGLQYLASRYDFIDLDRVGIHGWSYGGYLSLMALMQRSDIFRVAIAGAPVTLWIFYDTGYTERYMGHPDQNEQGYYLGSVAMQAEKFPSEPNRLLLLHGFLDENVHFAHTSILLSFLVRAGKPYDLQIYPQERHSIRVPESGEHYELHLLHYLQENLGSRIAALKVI
As to the kind of experiment: DPP 8 activity screening (Ala-Pro-AMC fluorescence). The conditions noted are these: N.I. = No Inhibition.
Excerpt: as §1
(§4) Materials: human DPP IV, obtained extracellular fragment of protease DPP IV (aa29-766), was expressed and purified by our laboratory using baculovirus expression system Bac-to-Bac (purchased from GIBCO company) in accordance with the conventional experimental technology; human DPP 8 was obtained in insect cells by our laboratory using baculovirus expression system Bac-to-Bac (purchased from GIBCO company) in accordance with the conventional experimental technology; Human DPP 9 was obtained in insect cells by our laboratory using baculovirus expression system Bac-to-Bac (purchased from GIBCO company) in accordance with the conventional experimental technology; and the substrate Ala-Pro-AMC was synthesized by GL Biochem (Shanghai) Ltd.
(§5) Principle of Activity test: DPP IV, DPP 8 and DPP 9 can specifically hydrolyze the substrate Ala-Pro-AMC to form product AMC, and AMC is excited by 355 nm of UV light to generate 460 nm of emission light. The linear change of fluorescence value at 460 nm in unit time was dynamically measured and DPP IV activity was obtained by calculation.
as §2, §3

In the next assay the target is T3, human DPP IV (Homo sapiens, UniProt P27487).
T3 construct: extracellular fragment of protease DPP IV (aa29-766); made in house; host or cells: baculovirus expression system Bac-to-Bac
T3 sequence (P27487 29-766): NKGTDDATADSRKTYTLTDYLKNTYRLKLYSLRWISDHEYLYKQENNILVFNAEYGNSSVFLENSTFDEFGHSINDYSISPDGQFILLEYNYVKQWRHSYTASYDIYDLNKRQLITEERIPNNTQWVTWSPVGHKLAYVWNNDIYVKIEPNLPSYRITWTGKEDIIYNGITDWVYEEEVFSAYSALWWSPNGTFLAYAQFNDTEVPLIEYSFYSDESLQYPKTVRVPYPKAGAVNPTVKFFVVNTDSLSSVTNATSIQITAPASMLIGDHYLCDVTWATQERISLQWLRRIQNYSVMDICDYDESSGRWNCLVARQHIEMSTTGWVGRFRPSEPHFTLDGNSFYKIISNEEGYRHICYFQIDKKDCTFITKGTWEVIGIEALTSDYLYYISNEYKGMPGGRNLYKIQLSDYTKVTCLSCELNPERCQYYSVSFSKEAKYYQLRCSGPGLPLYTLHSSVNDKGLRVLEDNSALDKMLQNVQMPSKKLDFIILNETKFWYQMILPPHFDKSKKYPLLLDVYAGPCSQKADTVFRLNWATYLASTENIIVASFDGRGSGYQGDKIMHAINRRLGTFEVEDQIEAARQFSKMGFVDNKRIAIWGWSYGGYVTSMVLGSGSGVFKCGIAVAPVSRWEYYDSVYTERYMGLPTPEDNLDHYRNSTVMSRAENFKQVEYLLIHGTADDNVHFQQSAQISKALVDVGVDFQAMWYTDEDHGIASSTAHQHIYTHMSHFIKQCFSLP
Kind of assay: DPP IV activity screening (Ala-Pro-AMC fluorescence). The method, then: as §1
Instruments: Microplate Reader (PerkinElmer, USA).
The linear change of fluorescence value at 460 nm in unit time was dynamically measured and DPP IV activity was obtained by calculation.
as §2, §3

Another assay addresses T4, Human DPP 9 (Homo sapiens, UniProt Q86TI2).
T4 construct: made in house; host or cells: insect cells, baculovirus Bac-to-Bac
As to the kind of experiment: DPP 9 activity screening (Ala-Pro-AMC fluorescence). The conditions noted are these: N.I. = No Inhibition.
Excerpt: as §1, §4, §5, §2, §3

T4 sequence (Q86TI2 whole entry): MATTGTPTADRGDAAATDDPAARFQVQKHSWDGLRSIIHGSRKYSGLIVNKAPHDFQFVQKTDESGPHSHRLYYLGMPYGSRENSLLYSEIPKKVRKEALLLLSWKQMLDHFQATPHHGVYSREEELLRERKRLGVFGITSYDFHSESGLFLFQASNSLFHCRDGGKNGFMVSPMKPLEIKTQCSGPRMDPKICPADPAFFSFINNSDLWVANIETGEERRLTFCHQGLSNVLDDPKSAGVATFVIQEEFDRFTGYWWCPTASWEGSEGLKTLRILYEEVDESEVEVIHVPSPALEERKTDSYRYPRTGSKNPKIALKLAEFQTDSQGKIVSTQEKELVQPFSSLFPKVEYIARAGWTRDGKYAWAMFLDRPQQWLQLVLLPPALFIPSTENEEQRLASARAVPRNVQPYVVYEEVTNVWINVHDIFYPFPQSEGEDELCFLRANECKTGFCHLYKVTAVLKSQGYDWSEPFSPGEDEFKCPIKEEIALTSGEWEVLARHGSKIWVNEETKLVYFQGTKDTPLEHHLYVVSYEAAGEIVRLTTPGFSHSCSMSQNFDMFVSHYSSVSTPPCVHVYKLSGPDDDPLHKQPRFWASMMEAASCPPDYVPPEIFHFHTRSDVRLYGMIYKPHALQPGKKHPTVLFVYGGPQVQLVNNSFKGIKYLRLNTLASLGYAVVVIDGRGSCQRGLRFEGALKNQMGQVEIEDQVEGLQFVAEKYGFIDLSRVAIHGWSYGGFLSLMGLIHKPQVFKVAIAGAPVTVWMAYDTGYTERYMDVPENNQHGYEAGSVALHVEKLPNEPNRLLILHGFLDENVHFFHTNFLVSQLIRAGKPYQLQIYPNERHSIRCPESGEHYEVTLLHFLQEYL

Regarding `CC(C)CNC(=O)c1cc2nc(N3CCC[C@@H](N)C3)n(Cc3ccccc3C#N)c(=O)c2s1` [Compound 116, (R)-2-(3-aminopiperidin-1-yl)-3-(2-cyanobenzyl)-N-isobutyl-4-oxo-3,4-dihydrothieno[3,2-d]pyrimidine-6-carboxamide], the IC50 stood at 126 µM against FAP, 95.3 µM against human DPP 8 and 0.0186 µM at human DPP IV. Further, the “DPP 7 IC50” value in assay [1] is “N.I”. Also, on Human DPP 9, the “DPP 9 IC50” value was “N.I”.

`CN(C)C(=O)c1cc2nc(N3CCC[C@@H](N)C3)n(Cc3ccccc3C#N)c(=O)c2s1` [Compound 105, (R)-2-(3-aminopiperidin-1-yl)-3-(2-cyanobenzyl)-N,N-dimethyl-4-oxo-3,4-dihydrothieno[3,2-d]pyrimidine-6-carboxamide]: the IC50 against FAP is 200 µM; against human DPP IV it was 0.027 µM; against Human DPP 9, 257 µM. Besides, the “DPP 7 IC50” value in assay [1] is recorded as “N.I”. Moreover, the “DPP 8 IC50” value on human DPP 8 was “N.I”.

Take `N#Cc1ccccc1Cn1c(N2CCC[C@@H](N)C2)nc2c(C(=O)NCC3COC3)csc2c1=O` [Compound 82, (R)-2-(3-aminopiperidin-1-yl)-3-(2-cyanobenzyl)-N-(oxetan-3-ylmethyl)-4-oxo-3,4-dihydrothieno[3,2-d]pyrimidine-7-carboxamide]: the IC50 against FAP was determined as 16.5 µM; on human DPP 8 it was 18.1 µM; against human DPP IV, 0.0659 µM. In addition, the “DPP 7 IC50” value in assay [1] is on record as “N.I”. Moreover, the “DPP 9 IC50” value on Human DPP 9 is reported as “N.I”.

As for `COC(=O)CNC(=O)c1cc2nc(N3CCC[C@@H](N)C3)n(Cc3ccccc3C#N)c(=O)c2s1` [Compound 99, (R)-methyl 2-(2-(3-aminopiperidin-1-yl)-3-(2-cyanobenzyl)-4-oxo-3,4-dihydrothieno[3,2-d]pyrimidine-6-carboxamido)acetate], the IC50 was 178 µM at FAP, 66 µM against human DPP 8, 0.0247 µM against human DPP IV and 179 µM against Human DPP 9. Also, the “DPP 7 IC50” value in assay [1] is reported as “N.I”.

On to `N#Cc1ccccc1Cn1c(N2CCC[C@@H](N)C2)nc2c(C(=O)NC3CC3)csc2c1=O` [Compound 65, (R)-2-(3-aminopiperidin-1-yl)-3-(2-cyanobenzyl)-N-cyclopropyl-4-oxo-3,4-dihydrothieno[3,2-d]pyrimidine-7-carboxamide], for which the IC50 at FAP came to 75.5 µM; on human DPP 8, 44.8 µM; on human DPP IV, 0.0302 µM; at Human DPP 9, 137 µM. Moreover, in assay [1], the “DPP 7 IC50” value was “N.I”.

For the compound `CN(C)C(=O)c1csc2c(=O)n(Cc3ccccc3C#N)c(N3CCC[C@@H](N)C3)nc12` [Compound 63, (R)-2-(3-aminopiperidin-1-yl)-3-(2-cyanobenzyl)-N,N-dimethyl-4-oxo-3,4-dihydrothieno[3,2-d]pyrimidine-7-carboxamide], the IC50 is 170 µM against FAP, 47.9 µM against human DPP 8, 0.0275 µM against human DPP IV and 189 µM against Human DPP 9. The “DPP 7 IC50” value in assay [1] is “N.I”.

Take `CC(=O)Nc1csc2c(=O)n(Cc3ccccc3C#N)c(N3CCC[C@@H](N)C3)nc12` [Compound 86, (R)-N-(2-(3-aminopiperidin-1-yl)-3-(2-cyanobenzyl)-4-oxo-3,4-dihydrothieno-[3,2-d]pyrimidin-7-yl)acetamide]: the values for the IC50 at FAP, at human DPP 8 and at human DPP IV were 121 µM, 318 µM and 0.0208 µM, respectively. The “DPP 7 IC50” value in assay [1] is recorded as “N.I”. Moreover, the “DPP 9 IC50” value on Human DPP 9 was “N.I”.

Take `N#Cc1ccccc1Cn1c(N2CCC[C@@H](N)C2)nc2c(C(=O)NCC3CC3)csc2c1=O` [Compound 73, (R)-2-(3-aminopiperidin-1-yl)-3-(2-cyanobenzyl)-N-(cyclopropylmethyl)-4-oxo-3,4-dihydrothieno[3,2-d]-pyrimidine-7-carboxamide]: the IC50 against FAP was found to be 14.6 µM; in assay [1], 159 µM; at human DPP 8, 9.08 µM; against human DPP IV, 0.00892 µM; at Human DPP 9, 66.8 µM.

Consider `COC(=O)c1cc2nc(N3CCC[C@@H](N)C3)n(Cc3ccccc3C#N)c(=O)c2s1` [Compound 38, (R)-methyl 2-(3-aminopiperidin-1-yl)-3-(2-cyanobenzyl)-4-oxo-3,4-dihydrothieno[3,2-d]pyrimidine-6-carboxylate], for which, on FAP, the “FAP IC50” value is listed as “N.I”. The “DPP 7 IC50” value in assay [1] is “N.I”. For the same compound, the “DPP 8 IC50” value on human DPP 8 is on record as “N.I”. At human DPP IV, 0.0115 µM corresponded to half-maximal inhibition (IC50). Further, the “DPP 9 IC50” value at Human DPP 9 is recorded as “N.I”.

On to `COC(=O)[C@@H](NC(=O)c1cc2nc(N3CCC[C@@H](N)C3)n(Cc3ccccc3C#N)c(=O)c2s1)C(C)C` [Compound 100, (S)-methyl 2-(2-((R)-3-aminopiperidin-1-yl)-3-(2-cyanobenzyl)-4-oxo-3,4-dihydrothieno[3,2-d]pyrimidine-6-carboxamido)-3-methylbutanoate], for which the IC50 against FAP was determined as 119 µM; at human DPP 8, 43.1 µM; at human DPP IV it was 0.0283 µM; at Human DPP 9 it was 117 µM. The “DPP 7 IC50” value in assay [1] is listed as “N.I”.

As to `N#Cc1ccccc1Cn1c(N2CCC[C@@H](N)C2)nc2cc(C(=O)NCc3ccccc3Cl)sc2c1=O` [Compound 110, (R)-2-(3-aminopiperidin-1-yl)-N-(2-chlorobenzyl)-3-(2-cyanobenzyl)-4-oxo-3,4-dihydrothieno[3,2-d]pyrimidine-6-carboxamide], the IC50 against FAP is 133 µM; against human DPP 8, 80.6 µM; against human DPP IV, 0.0248 µM; at Human DPP 9, 51.2 µM. Also, in assay [1], the “DPP 7 IC50” value is “N.I”.

With `N#Cc1ccccc1Cn1c(N2CCC[C@@H](N)C2)nc2c(C(=O)N3CCOCC3)csc2c1=O` [Compound 69, (R)-2-((2-(3-aminopiperidin-1-yl)-7-(morpholine-4-carbonyl)-4-oxothieno-[3,2-d]pyrimidin-3(4H)-yl)methyl)-benzonitrile], at FAP, the “FAP IC50” value is given as “N.I”. Besides, in assay [1], the “DPP 7 IC50” value is recorded as “N.I”. The “DPP 8 IC50” value on human DPP 8 is recorded as “N.I”. The IC50 on human DPP IV came to 0.0321 µM. Besides, the “DPP 9 IC50” value on Human DPP 9 is “N.I”.

Regarding `N#Cc1ccccc1Cn1c(N2CCC[C@@H](N)C2)nc2cc(C(=O)NCc3ccc(C(F)(F)F)cc3)sc2c1=O` [Compound 103, (R)-2-(3-aminopiperidin-1-yl)-3-(2-cyanobenzyl)-4-oxo-N-(4-(trifluoromethyl)benzyl)-3,4-dihydrothieno[3,2-d]pyrimidine-6-carboxamide], the IC50 is 145 µM on FAP, 0.0538 µM at human DPP IV and 86.8 µM against Human DPP 9. In addition, the “DPP 7 IC50” value in assay [1] is reported as “N.I”. For the same compound, on human DPP 8, the “DPP 8 IC50” value is given as “N.I”.

With `N#Cc1ccccc1Cn1c(N2CCC[C@@H](N)C2)nc2cc(C(=O)N3CCCCC3)sc2c1=O` [Compound 108, (R)-2-((2-(3-aminopiperidin-1-yl)-4-oxo-6-(piperidine-1-carbonyl)thieno-[3,2-d]pyrimidin-3(4H)-yl)methyl)-benzonitrile], the IC50 was 27 µM at FAP, 15.1 µM at human DPP 8, 0.0118 µM on human DPP IV and 111 µM on Human DPP 9. Further, in assay [1], the “DPP 7 IC50” value was “N.I”.

The IC50 is the point on the concentration scale where inhibition reaches its midpoint. The low end stands for inhibition by little substance, the high end for a need for much substance.
